Test results taken from PubChem BioAssay (NCI).
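Values below derive from 48-hour exposures of cells grown in 96-well plates, with endpoints linearly interpolated between the two concentrations bracketing the appropriate inhibition level. Abbreviation: GI50, concentration required for 50% inhibition of growth. At the TGI there is no net growth.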 *1 amine or outer side, *2 acyl side, *3 side chain or, on linkers, in order; H or OH if unused. Where a SMILES comes first, the peptide text is derived from it. [ ]: non-standard residue; d: D form. The star is where a group is joined. X12 = NCCCCC(N[*:1])C(=O)CN1CCCC1C(=O)[*:2]; Pentadecanoyl = CCCCCCCCCCCCCCC(=O)*

Legend:
Assay in all cases: NCI tumour cell line growth inhibition, 48 h
SK-MEL-28 melanoma = system: SK-MEL-28 melanoma
HOP-62 NSCLC = system: HOP-62 NSCLC
RXF 393 renal = system: RXF 393 renal
TK-10 renal = system: TK-10 renal
CAKI-1 renal = system: CAKI-1 renal
SNB-19 CNS = system: SNB-19 CNS
SK-MEL-5 melanoma = system: SK-MEL-5 melanoma
U251 CNS = system: U251 CNS
UACC-62 melanoma = system: UACC-62 melanoma
PC-3 prostate = system: PC-3 prostate

Structure (SMILES)	GI50 (SK-MEL-28 melanoma) [µM]	TGI (SK-MEL-28 melanoma) [µM]	GI50 (HOP-62 NSCLC) [µM]	TGI (HOP-62 NSCLC) [µM]	GI50 (RXF 393 renal) [µM]	TGI (RXF 393 renal) [µM]	GI50 (TK-10 renal) [µM]	TGI (TK-10 renal) [µM]	GI50 (CAKI-1 renal) [µM]	TGI (CAKI-1 renal) [µM]	GI50 (SNB-19 CNS) [µM]	TGI (SNB-19 CNS) [µM]	GI50 (SK-MEL-5 melanoma) [µM]	TGI (SK-MEL-5 melanoma) [µM]	TGI (U251 CNS) [µM]	TGI (UACC-62 melanoma) [µM]	TGI (PC-3 prostate) [µM]
CCCCCCCCCCCCCCC(=O)NC(CCCCN)C(=O)CN1CCCC1C(=O)NCC(=O)NC(Cc1ccccc1)C(=O)N1CCCC1C(=O)NC(CO)C(=O)NC(Cc1ccc(O)cc1)C(=O)NC(CCCCN)C(=O)NC(CC(C)C)C(=O)NC(CCCN=C(N)N)C(=O)N1CCCC1C(=O)NCC(N)=O (stereo not given) (Pentadecanoyl-[X12]GFPSYKLRPG-NH2; configuration not given here)	25.7	60.6	20.5	45.2	26.1	60.4	11.7	32.9	20.6	48.7	24.4	50.4	30.5	> 100			
CCC(C)Cn1c(C)nc2c1C(=O)c1ccccc1C2=O (stereo not given)		> 100		> 100		> 100		> 100				> 100		29.6	> 100	27.5	
CN(C)CCSc1nccc(-c2ccc(-c3ccnc(SCCN(C)C)n3)s2)n1		36.2		30.6		9.99				33.1		38.8		31	26	29.7	
Cc1nc(C)c(C(=O)NNC(=O)c2ccccc2)cc1C(=O)NNC(=O)c1ccccc1				> 100		> 100		> 100		> 100		> 100		> 100	> 100	> 100	> 100
COc1ccc(Cn2nc(OCc3ccccc3)c3cc([N+](=O)[O-])ccc32)cc1		> 100		> 100		> 100		> 100				> 100		> 100		> 100	
[O-][n+]1cc(SCc2ccccc2)ncc1SCc1ccccc1		> 10		> 10		> 10		> 10		> 10				> 10	> 10	> 10	> 10
O=C(OCC(OC(=O)c1ccccc1)C1CC(C(O)C2CCCCC2)C(=O)O1)c1ccccc1 (stereo not given)				> 100		> 100		> 100		> 100		> 100		32.2	> 100	> 100	> 100
CCOC(=O)N1c2c(c3ccccc3n2C(=O)OCC)C(=O)C(OC)N1C(=O)OCC (stereo not given)		53.6		> 100				> 100		93.9		> 100		60.7	76.5	> 100	80.5
CC1[C@@H]2C[C@@H]3O[C@@]34[C@H]3CCC5Cc6nc7c(nc6C[C@@]5(C)C3(O)CC(=O)[C@@]24CO[C@]12OC(C)(C)CC2O)CC1CC[C@@H]2C3=C[C@H]4O[C@@]5(O[C@@](C)(CO)C[C@@H]5O)C(C)[C@@]4(O)[C@]3(C)[C@@H](O)CC2[C@]1(C)C7 (stereo not given in full)				0.0729		0.0296				> 3.52				> 3.52	0.332	0.104	
O=S1(=O)OCCOS(=O)(=O)C1S(=O)(=O)c1cccc2ccccc12		> 100		> 100						> 100				> 100	> 100		> 100
COc1ccc(C2=C(N)c3cc(OC)ccc3C2=O)cc1		> 100		> 100						> 100		> 100		> 100	> 100	> 100	> 100
CC(=O)c1nc(C#N)c(N)o1		> 100		> 100		> 100		> 100		> 100		> 100			> 100	> 100	> 100
Clc1ccc(C2=NNC(c3cccc(Cl)c3)C2)cc1 (stereo not given)				> 100		> 100		79.9		> 100		> 100		28.1	37.5	> 100	97.4
Nc1nn2cc(-c3ccccc3)[n+](CC(=O)c3ccccc3)c2s1				87.5		62.4		> 100		> 100		52.9		73.8	29.6	> 100	> 100
Cc1cccc(-c2cc(=O)c3cc(C)cnc3[nH]2)c1		> 100		> 100		> 100		> 100		> 100				21	> 100	> 100	> 56.9
S=C1NNC(=S)NN1		> 1		> 1				> 1		0.475		> 1		> 1	> 1	> 1	> 1
c1ccc(C2C3=C(CCCC3)Nc3nnnn32)cc1 (stereo not given)				> 100		27.8				> 100		> 100		> 100	> 100	> 100	> 100
O=C1CSC2=NC3=C(COC/C3=C\c3ccc(F)cc3)C(c3ccc(F)cc3)N12 (stereo not given)				> 100		> 100		> 100		> 100		> 100		> 100	> 100	> 100	> 100
CC(=O)c1c2c(cc3c1CCC3)CCC2		> 100		> 100				> 100		> 100		> 100		> 100	> 100	> 100	> 100
CC1=CCC(=O)[C@]2(C)C(CC(=O)O)[C@]3(C)C4=C(C)C(c5ccoc5)C[C@@H]4O[C@@H]3[C@H](O)[C@@H]12 (stereo not given in full)		> 100						> 100		> 100		> 100		> 100	> 100	> 100	> 100
C[C@@H]1CC(=O)[C@@]2(C)[C@](O)(CCC3O[C@]32C)[C@@]12CC(c1ccoc1)OC2=O (stereo not given in full)		> 100				88.6		> 100		> 100		> 100		> 100	> 100	> 100	> 100
O=C(c1cccs1)N(C(=O)N1CCCCC1)c1ccccc1		> 100				> 100		> 100		> 100		> 100		> 100	> 100	> 100	> 100
